Results taken from US9695155B2, “Herbicidal substituted pyrimidinyloxy benzene compounds” (E. I. DU PONT DE NEMOURS AND COMPANY, priority 2013, dated 2017).

Assays:
barnyardgrass [1] = experiment: Test A preemergence; format: in vivo, Echinochloa crus-galli; details: for Barnyardgrass plant response rating: 500 g ai/ha
In short: (§1)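 Visual injury scored 0–100 (100 = complete control) against untreated controls about 10 days after treatment in a greenhouse. Test chemicals, formulated with surfactant in non-phytotoxic solvent, were sprayed on soil preemergence or on 2-10 cm, one- to two-leaf plants postemergence.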

large (Lg) crabgrass [2] = experiment: Test A preemergence; format: in vivo, Digitaria sanguinalis; details: for Crabgrass, Large plant response rating: 500 g ai/ha
In short: as §1

giant foxtail [3] = experiment: Test A preemergence; format: in vivo, Setaria faberii; details: for Foxtail, Giant plant response rating: 500 g ai/ha
In short: as §1

morningglory [4] = experiment: Test A preemergence; format: in vivo, Ipomoea spp.; details: for Morningglory plant response rating: 500 g ai/ha
In short: as §1

pigweed [5] = experiment: Test A preemergence; format: in vivo, Amaranthus retroflexus; details: for Pigweed plant response rating: 500 g ai/ha
In short: as §1

velvetleaf [6] = experiment: Test A preemergence; format: in vivo, Abutilon theophrasti; details: for Velvetleaf plant response rating: 500 g ai/ha
In short: as §1

wheat [7] = experiment: Test A preemergence; format: in vivo, Triticum aestivum; details: for Wheat plant response rating: 500 g ai/ha
In short: as §1

corn [8] = experiment: Test A preemergence; format: in vivo, Zea mays; details: for Corn plant response rating: 500 g ai/ha
In short: as §1

barnyardgrass [9] = experiment: Test A postemergence; format: in vivo, Echinochloa crus-galli
In short: as §1

large (Lg) crabgrass [10] = experiment: Test A postemergence; format: in vivo, Digitaria sanguinalis
In short: as §1

giant foxtail [11] = experiment: Test A postemergence; format: in vivo, Setaria faberii
In short: as §1

morningglory [12] = experiment: Test A postemergence; format: in vivo, Ipomoea spp.
In short: as §1

pigweed [13] = experiment: Test A postemergence; format: in vivo, Amaranthus retroflexus
In short: as §1

velvetleaf [14] = experiment: Test A postemergence; format: in vivo, Abutilon theophrasti
In short: as §1

wheat [15] = experiment: Test A postemergence; format: in vivo, Triticum aestivum
In short: as §1

corn [16] = experiment: Test A postemergence; format: in vivo, Zea mays
In short: as §1

rice = experiment: Test B flooded paddy test; format: in vivo, Oryza sativa; details: Flood, 250 g ai/ha; 0 to 100 scale where 0 is no effect and 100 is complete control
In short: (§2)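 Scores from 0 (no effect) to 100 (complete control) are visual comparisons with controls, taken 13 to 15 days after compound was applied into floodwater 3 cm deep around 2-leaf plants.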

sedge, umbrella = experiment: Test B flooded paddy test; format: in vivo, Cyperus difformis; details: Flood, 250 g ai/ha; 0 to 100 scale where 0 is no effect and 100 is complete control
In short: as §2

Heteranthera limosa = experiment: Test B flooded paddy test; format: in vivo; details: Flood, 250 g ai/ha; 0 to 100 scale where 0 is no effect and 100 is complete control
In short: as §2

barnyardgrass [17] = experiment: Test B flooded paddy test; format: in vivo, Echinochloa crus-galli; details: Flood, 250 g ai/ha; 0 to 100 scale where 0 is no effect and 100 is complete control
In short: as §2

[18] = 125 g ai/ha, 0 to 100 scale where 0 is no effect and 100 is complete control
[19] = 0 to 100 scale, 0 no effect, 100 complete control, approx. 10 days
[20] = 500 g ai/ha, 0 to 100 scale, 0 no effect, 100 complete control
[21] = 0 to 100 scale where 0 is no effect and 100 is complete control
[22] = 125 g ai/ha, 0 to 100 scale, 0 no effect, 100 complete control
[23] = 500 g ai/ha, 0 to 100 scale where 0 is no effect and 100 is complete control

Cc1cccc(Oc2ncc(Cl)cn2)c1-n1cc(Br)cn1 [Compound 44]
Plant response rating, Barnyardgrass (barnyardgrass [1]; [18]): 50 | Barnyardgrass plant response rating (barnyardgrass [1]; [19]): 100 | Plant response rating, Crabgrass, Large (large (Lg) crabgrass [2]; [18]): 90 | Crabgrass, Large plant response rating (large (Lg) crabgrass [2]; [19]): 100 | Plant response rating, Foxtail, Giant (giant foxtail [3]; [18]): 60 | Foxtail, Giant plant response rating (giant foxtail [3]; [19]): 100 | Plant response rating, Morningglory (morningglory [4]; [18]): 50 | Morningglory plant response rating (morningglory [4]; [19]): 60 | Plant response rating, Pigweed (pigweed [5]; [18]): 100 | Pigweed plant response rating (pigweed [5]; [19]): 100 | Plant response rating, Velvetleaf (velvetleaf [6]; [18]): 70 | Velvetleaf plant response rating (velvetleaf [6]; [19]): 100 | Plant response rating, Wheat (wheat [7]; [18]): 0 | Wheat plant response rating (wheat [7]; [19]): 20 | Plant response rating, Corn (corn [8]; [18]): 0 | Corn plant response rating (corn [8]; [19]): 20 | Plant response rating, Barnyardgrass (barnyardgrass [9]; [18]): 30 | Plant response rating, Barnyardgrass (barnyardgrass [9]; [20]): 90 | Plant response rating, Crabgrass, Large (large (Lg) crabgrass [10]; [18]): 80 | Plant response rating, Crabgrass, Large (large (Lg) crabgrass [10]; [20]): 100 | Plant response rating, Foxtail, Giant (giant foxtail [11]; [18]): 50 | Plant response rating, Foxtail, Giant (giant foxtail [11]; [20]): 90 | Plant response rating, Morningglory (morningglory [12]; [18]): 20 | Plant response rating, Morningglory (morningglory [12]; [20]): 60 | Plant response rating, Pigweed (pigweed [13]; [18]): 70 | Plant response rating, Pigweed (pigweed [13]; [20]): 100 | Plant response rating, Velvetleaf (velvetleaf [14]; [18]): 100 | Plant response rating, Velvetleaf (velvetleaf [14]; [20]): 100 | Plant response rating, Wheat (wheat [15]; [18]): 0 | Plant response rating, Wheat (wheat [15]; [20]): 30 | Plant response rating, Corn (corn [16]; [18]): 20 | Plant response rating, Corn (corn [16]; [20]): 40 | Plant response rating, Rice (rice): 45 | Plant response rating, Sedge, Umbrella (sedge, umbrella): 90 | Plant response rating, Ducksalad (Heteranthera limosa): 100 | Plant response rating, Barnyardgrass (barnyardgrass [17]): 20

Clc1cnc(Oc2cccc(-c3ncco3)c2-n2cc(Br)cn2)nc1 [Compound 287]
Barnyardgrass plant response rating (0 to 100 scale, 0 is no effect, 100 is complete control) (barnyardgrass [1]; 125 g ai/ha): 0 | Barnyardgrass plant response rating (barnyardgrass [1]; [21]): 0 | Crabgrass, Large plant response rating (0 to 100 scale) (large (Lg) crabgrass [2]; 125 g ai/ha): 0 | Crabgrass, Large plant response rating (large (Lg) crabgrass [2]; [21]): 70 | Foxtail, Giant plant response rating (0 to 100 scale) (giant foxtail [3]; 125 g ai/ha): 0 | Foxtail, Giant plant response rating (giant foxtail [3]; [21]): 40 | Morningglory plant response rating (0 to 100 scale) (morningglory [4]; 125 g ai/ha): 0 | Morningglory plant response rating (morningglory [4]; [21]): 0 | Pigweed plant response rating (0 to 100 scale) (pigweed [5]; 125 g ai/ha): 0 | Pigweed plant response rating (pigweed [5]; [21]): 100 | Velvetleaf plant response rating (0 to 100 scale) (velvetleaf [6]; 125 g ai/ha): 0 | Velvetleaf plant response rating (velvetleaf [6]; [21]): 0 | Wheat plant response rating (0 to 100 scale) (wheat [7]; 125 g ai/ha): 0 | Wheat plant response rating (wheat [7]; [21]): 0 | Corn plant response rating (0 to 100 scale) (corn [8]; 125 g ai/ha): 0 | Corn plant response rating (corn [8]; [21]): 0 | Plant response rating, Barnyardgrass (barnyardgrass [9]; [22]): 0 | Plant response rating, Barnyardgrass (barnyardgrass [9]; [23]): 0 | Plant response rating, Crabgrass, Large (large (Lg) crabgrass [10]; [22]): 10 | Plant response rating, Crabgrass, Large (large (Lg) crabgrass [10]; [23]): 20 | Plant response rating, Foxtail, Giant (giant foxtail [11]; [22]): 0 | Plant response rating, Foxtail, Giant (giant foxtail [11]; [23]): 0 | Plant response rating, Morningglory (morningglory [12]; [22]): 10 | Plant response rating, Morningglory (morningglory [12]; [23]): 20 | Plant response rating, Pigweed (pigweed [13]; [22]): 30 | Plant response rating, Pigweed (pigweed [13]; [23]): 50 | Plant response rating, Velvetleaf (velvetleaf [14]; [22]): 10 | Plant response rating, Velvetleaf (velvetleaf [14]; [23]): 20 | Plant response rating, Wheat (wheat [15]; [22]): 0 | Plant response rating, Wheat (wheat [15]; [23]): 0 | Plant response rating, Corn (corn [16]; [22]): 0 | Plant response rating, Corn (corn [16]; [23]): 0 | Plant response rating, Rice (rice): 0 | Plant response rating, Sedge, Umbrella (sedge, umbrella): 0 | Plant response rating, Ducksalad (Heteranthera limosa): 0 | Plant response rating, Barnyardgrass (barnyardgrass [17]): 0
